# Reference: patent US12297293B2, “Peptide compounds targeting PD-1 receptor as well as preparation and applications thereof” (NANTONG UNIVERSITY, priority 2021, dated 2025)
# Ends that are not written are not given here.
# Columns and labels:
# [1] = tested on: acetic acid-induced visceral pain; assay: Acetic acid-induced visceral pain (writhing) test; type: in vivo, ICR male mice
# Procedure: According to the present invention, placing ICR male mice in a weight range of 25-30 g in an observation room for 15 min, and injecting intrathecally with different doses of the compound 4 (5 nmol, 10 nmol, 30 nmol) or saline; after 5 min, injecting intraperitoneally with 0.6% glacial acetic acid solution (10 mL/kg), and then sending to the observation room; counting the number of body writhing within 20 min.
# The experimental results are shown in FIG. 4, the number of writhing in mice decreased with the increase of the administered dose. […] Intrathecally injected at a dose of 30 nmol, the compound 4 inhibited the writhing behavior of mice by 63%.
# [2] = tested on: formalin-induced inflammatory pain; assay: Formalin-induced inflammatory pain test; type: in vivo, ICR male mice
# Procedure: According to the present invention, placing ICR male mice in a weight range of 25-30 g in an observation room for 15 min, and injecting intrathecally with different doses of the compound 4 (5 nmol, 10 nmol, 30 nmol) or saline; after 5 min, injecting subcutaneously with 5% formalin (20 μl) through the plantar surface of the foot, and then immediately sending to the observation room; counting an accumulated time of pain behaviors (licking, biting, and flinging the injected foot) during the time period of 0-10 min and 10-45 min, respectively.
# 0-10 min after formalin injection is a phase I, which is mainly triggered by direct activation of injurious neurons; and 10-35 min is phase II, which is mainly triggered by formalin-induced inflammatory response.
# DRG neurons = assay: DRG neuronal calcium imaging experiment; type: cell-based, ICR mice; settings: DRG neurons pretreated with 1 nM; high K+ solution; Fluo-4/AM, laser confocal
# Text: The inhibitory effect of compounds 1-5 on pain signaling was characterized by DRG neuronal calcium imaging, comprising the following steps:
# performing acute isolation on 3-week-old female ICR mice, and extracting DRG in a sterile bench; lysing sequentially by collagenase A and trypsin; terminating trypsin lysis with a complete medium containing serum; centrifuging at 800r, discarding supernatant, and adding Neurobasal medium (containing 2% B27, Clutanine 1%, and 1% penicillin-streptomycin double antibody solution) and thoroughly mixing; then culturing in pre-prepared Petri dishes lined with PDL for 48 h; labeling DRG neurons with Flou-4/AM prior to the experiment, and pre-treating with different doses of the compounds 1-5/equivalent volume of HBSS before stimulating the DRG neurons with high K+ solution; and then detecting changes of intracellular free calcium ion concentration of DRG neurons under laser confocal.
sequence,measurement,setting,value
SYGGADYKR [compound 4],number of abdominal writhing,"[1]; intrathecal 5, 10, 30 nmol, 0.6% acetic acid i.p. 10 mL/kg, writhing within 20 min",significantly reduce the number of abdominal writhing in mice in a dose-dependent manner
same,inhibition of writhing behavior,[1]; intrathecal dose of 30 nmol,63%
same,ED50,"[1]; intrathecal injection, acetic acid writhing",13.5 (11.88-15.34) nmol
same,"pain behavior (licking, biting and flinging the injected foot) in both phases","[2]; intrathecal 5, 10, 30 nmol, 5% formalin 20 μl plantar, phase I and phase II, vs control group",significantly shortened
same,ED50 (median effective dose) for pain in phase II,"[2]; intrathecal injection, formalin phase II",6.28 (5.34-7.39) nmol
same,inhibitory effect on the increase of intracellular Ca2+ concentration induced by high K+,DRG neurons,significant inhibitory effect
